# Data: patent US20010010919A1 (priority 1998, published 2001)
# Entries after “also recorded” stand apart in the source; their conditions may differ.
# Columns and labels:
# [1] = molecular target: T1, novel mammalian opioid receptor (LC132, OFQR) (Rattus norvegicus, UniProt P35370); format: binding
# T1 construct: The entire coding region of the receptor cDNA insert was subcloned into the RcRVS vector; expressed in transfected cells
# DBA/2J mice = assay: Morphine hypothermia and Straub tail, core body temperature
# Swiss-Webster mice [2] = assay: Reversal of morphine analgesia, 49° C. TW test; format: in vivo, mouse
# [3] = system: untransfected COS-7 and Ltk^− cells; assay: Radioligand binding to membranes of untransfected cells (control); conditions: untransfected cell membranes
# mice [4] = assay: Acetic acid abdominal constriction (AC, writhing) test; format: in vivo, mouse; conditions: for effect on SIA (decreased number of abdominal constrictions): OFQ 2.5 nmole icv, NAL sc
# Description: This test is an extremely sensitive measure of tonic, chemically-induced pain stimulus.
# The AC assay was a modification of the technique originally described by Koster et al. Mice (N=9-15 per group) were acclimated to individual cylindrical Plexiglass observation chambers for >30 minutes. […] A separate group of Sal-treated mice received no icv injection (None). Between 5 and 10 minutes later, all mice were given an intraperitoneal (ip) injection of 0.9% acetic acid and placed back in their observation chambers. For the next 30 minutes, the number of abdominal constrictions (lengthwise stretches of the torso with a concomitant concave arching of the back) were counted and recorded. Four mice in separate chambers were observed simultaneously by a single experimenter blind to drug condition.
# Swiss-Webster mice [5] = assay: Tail-withdrawal (TW) test 46° C., stress-induced analgesia; format: in vivo, mouse; conditions: for hyperalgesia: 46° C. TW test; for effect on the 4 s post-injection increase in TW latency (stress-induced analgesia): OFQ 10 nmole icv, naloxone 1 mg/kg sc
# Description: The latency to respond to the heat stimulus by a vigorous flexion of the tail was measured to the nearest 0.1 s by an experienced observer blind to the drug condition of the animal. Mice were lightly restrained in a cloth/cardboard holder during testing. In the absence of a withdrawal reflex or other indication of distress, the tail was removed from the water after a cut-off latency of 15 s. To improve accuracy, three separate TW latency determinations, separated by 20 s, were made and averaged at each test. […] Because there were no changes in post-injection TW latencies in any group with repeated testing at 10, 20 and 30 min post-injection, data from these time points were pooled.
# [6] = Meunier et al., Nature 377,532-535 (1995); cited from earlier work
# C57BL/6J mice = assay: Precipitation of withdrawal in morphine dependent mice (withdrawal jumping); format: in vivo, mouse
# mice [7] = assay: Open-field observation and locomotor activity after icv administration; format: in vivo, mouse
# Description: For these experiments, the peptide was administered intracerebroventricularly (icv) and intrathecally (it) in mice. Immediately after peptide administration, mice were placed in transparent boxes in groups of three, and behavioral signs recorded. Emphasis was placed on signs indicative of depressant, stimulant and autonomic effects of the peptide (as described by Irwin, 1968, Psychopharmacologia 13: 222). […] The effects of the peptide on horizontal and vertical locomotor activity was measured using Digiscan Animal Activity Monitors (Omnitech, Columbus, Ohio). The values for horizontal and vertical locomotor activity represent the total number of interruptions of the horizontal and vertical sensors during the first 10 minutes following administration of the peptide. Data are shown as the mean±standard error of the mean.
# mice [8] = assay: Nociception in mice (hot plate, toe- and tail-pinch) after icv or intrathecal administration; format: in vivo, mouse
# T1 sequence (P35370 whole entry): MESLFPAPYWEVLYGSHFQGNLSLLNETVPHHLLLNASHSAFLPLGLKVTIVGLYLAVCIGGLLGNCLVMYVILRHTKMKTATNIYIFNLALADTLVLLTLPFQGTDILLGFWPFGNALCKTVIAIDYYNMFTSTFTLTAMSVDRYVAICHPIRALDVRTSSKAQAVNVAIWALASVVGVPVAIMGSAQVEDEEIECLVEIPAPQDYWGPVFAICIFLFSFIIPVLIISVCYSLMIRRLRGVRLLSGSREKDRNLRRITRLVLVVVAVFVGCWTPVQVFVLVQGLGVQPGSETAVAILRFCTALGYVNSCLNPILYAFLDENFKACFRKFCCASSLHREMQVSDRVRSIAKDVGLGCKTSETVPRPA
compound,measurement,setting,value
CN1CC[C@]23c4c5ccc(O)c4O[C@H]2[C@@H](O)CC[C@H]3[C@H]1C5 [dihydromorphine],specific binding of the radioactively-labeled ligand,[1],no specific binding
CN1CC[C@]23c4c5ccc(O)c4O[C@H]2[C@@H](O)C=C[C@H]3[C@H]1C5 [morphine],Straub tail production,DBA/2J mice; morphine 20 mg/kg,produced Straub tail
same,decrease in body temperature,DBA/2J mice; morphine 20 mg/kg i.p.,6 °C
same,analgesia produced,Swiss-Webster mice [2]; morphine sulfate 5 mg/kg s.c.,profound analgesia
same,duration of analgesia,Swiss-Webster mice [2]; morphine sulfate 5 mg/kg s.c.,about 2 hours
same,time of peak analgesia post-injection,Swiss-Webster mice [2]; morphine sulfate 5 mg/kg s.c.,30 min
CCC(=O)C(CC(C)N(C)C)(c1ccccc1)c1ccccc1 (centres unmarked) [methadone],endogenous binding of the radiolabeled ligand,[3],no or negligible amounts of endogenous methadone binding
same,Bmax,[1],400-450 fentomoles/μg protein
same,specific binding of the radioactively-labeled ligand,[1],specific binding was found
"c[D-penicillamine^2, D-penicillamine^5]enkephalin [DPDPE]",specific binding of the radioactively-labeled ligand,[1],no specific binding
CCC12CCN(CC3(O)CC3)C(Cc3ccc(O)cc31)C2(C)C (centres unmarked) [bremacozine],specific binding of the radioactively-labeled ligand,[1],no specific binding
"C=CCN1CC[C@]23c4c5ccc(O)c4O[C@H]2C(=O)CC[C@@]3(O)[C@H]1C5 [naloxone, reference compound]",endogenous binding of the radiolabeled ligand,[3],endogenous low levels of specific
same,effect on SIA (decreased number of abdominal constrictions),mice [4],reversed
same,hyperalgesia,Swiss-Webster mice [5],In no case did any mouse treated with OFQ or naloxone exhibit hyperalgesia
same,effect on the 4 s post-injection increase in TW latency (stress-induced analgesia),Swiss-Webster mice [5],attenuated
"C[C@@H](NC(=O)[C@@H](N)Cc1ccc(O)cc1)C(=O)NCC(=O)N(C)[C@@H](Cc1ccccc1)C(=O)NCCO [DAMGO, Tyr-DAla-Gly-Met-Phe-Gly-ol]",specific binding of the radioactively-labeled ligand,[1],no specific binding
CC(C)C[C@H](NC(=O)[C@H](CCCCN)NC(=O)[C@H](CCCNC(=N)N)NC(=O)[C@H](C)NC(=O)[C@H](CO)NC(=O)[C@H](CCCCN)NC(=O)[C@H](CCCNC(=N)N)NC(=O)[C@H](C)NC(=O)CNC(=O)[C@@H](NC(=O)[C@H](Cc1ccccc1)NC(=O)CNC(=O)CNC(=O)[C@@H](N)Cc1ccccc1)[C@@H](C)O)C(=O)N[C@@H](C)C(=O)N[C@@H](CC(N)=O)C(=O)N[C@@H](CCC(N)=O)C(=O)O [OFQ],effect on pain sensitivity in tail flick and hot-plate assays,[6],induces hyperalgesia
same,inhibition of the analgesic effect of morphine,"mice [4]; 2.5 nmole icv, within 30 minutes",pharmaceutically sufficient to inhibit the analgesic effect of morphine
same,effect on SIA (decreased number of abdominal constrictions),mice [4],reversed
same,precipitated withdrawal syndrome (withdrawal jumping),"C57BL/6J mice; OFQ 0.1-10 nmole i.c.v., 20-min testing period","equally effective in the precipitation of withdrawal; also recorded: unequivocal, albeit modest in comparison to that produced by systemic naloxone"
same,other withdrawal symptoms,C57BL/6J mice; OFQ i.c.v.,"wet-dog shakes and ptosis, were observed"
same,horizontal and vertical locomotion,"mice [7]; icv 0.1-10 nmole/2 μL/mouse, first 10 minutes",decrease of both horizontal and vertical locomotion
same,open-field behavioral signs,"mice [7]; larger doses, above 1 nmole/2 μL/mouse","profound influence on locomotor activity, as well as a decrease in muscle tone, a loss of righting reflex, and ataxia"
same,reversal of 20 mg/kg MOR hypothermia,"DBA/2J mice; 5 and 10 nmole i.c.v., 60-90 minutes post-MOR injection",significantly reversed
same,effect of the substance itself on body temperature,DBA/2J mice; 5 or 10 nmole i.c.v.,did not affect body temperature
same,elimination of morphine Straub tail,DBA/2J mice; at least 5 nmole OFQ icv,effectively eliminated Straub tail in the vast majority of animals
same,time to elimination of Straub tail following icv injection,DBA/2J mice; at least 5 nmole OFQ icv,1 to 2 min
same,toe- and tail-pinch reflexes,mice [8]; all doses tested,normal toe- and tail-pinch reflexes
same,analgesic effect in hot plate test,"mice [8]; icv, hot plate 58° C., cutoff 60 sec",little analgesic effect
same,"analgesic effect, intrathecal",mice [8]; intrathecally 2.5-10 nmole/4 μL/animal,No analgesic effect
same,hyperalgesia,Swiss-Webster mice [5],no evidence of hyperalgesia
same,effect on the 4 s post-injection increase in TW latency (stress-induced analgesia),Swiss-Webster mice [5],attenuated
same,reversal of morphine analgesia,Swiss-Webster mice [2]; OFQ 2.5-25 nmole i.c.v.,reversed this analgesia in a dose-dependent manner
same,"ED50, 50% inhibition of 5 mg/kg morphine analgesia","Swiss-Webster mice [2]; i.c.v. in a 2.5 μl volume, linear regression",7.5 nmol
"β-endorphin: endogenous opioid peptide, 125I-labeled",specific binding of the radioactively-labeled ligand,[1],no specific binding
